# Experimental data from US8119624B2, “Fused phenyl amido heterocyclic compounds” (Pfizer Inc., priority 2006, dated 2012).
# Where two headings read alike, the source gives them in different places.
# Target: T1, Full-length glucokinase (beta cell isoform) (Homo sapiens, UniProt P35557)
# T1 construct: Full-length glucokinase (beta cell isoform) was His-tagged at N-terminus; His tag (N); made in house
# T1 sequence (P35557 1-465): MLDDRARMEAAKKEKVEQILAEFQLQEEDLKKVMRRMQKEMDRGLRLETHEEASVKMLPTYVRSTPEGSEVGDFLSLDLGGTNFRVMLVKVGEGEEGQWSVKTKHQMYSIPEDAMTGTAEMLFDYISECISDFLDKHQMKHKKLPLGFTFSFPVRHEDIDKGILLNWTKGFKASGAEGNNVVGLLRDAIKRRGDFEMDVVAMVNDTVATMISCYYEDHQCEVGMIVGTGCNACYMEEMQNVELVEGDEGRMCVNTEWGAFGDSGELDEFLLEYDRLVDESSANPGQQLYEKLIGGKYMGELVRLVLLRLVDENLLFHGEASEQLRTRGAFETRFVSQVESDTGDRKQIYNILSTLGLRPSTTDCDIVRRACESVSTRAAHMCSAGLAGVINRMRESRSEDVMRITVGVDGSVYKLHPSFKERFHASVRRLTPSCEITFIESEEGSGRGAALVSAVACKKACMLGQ
# Assay: Glucokinase biochemical assay (PK/LDH-coupled, NADH depletion at 340 nm): % activation, EC50, % max activation
# Details: 5 mM glucose; for activation at 10 µM: read-out: % Activation at 10 uM; for EC50: read-out: EC50; for Emax: fitted maximum activation, read-out: % Max Activation
# Summary of the method: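 N-terminally His-tagged full-length human beta-cell glucokinase, room temperature, 5 mM glucose, 1 mM ATP, PK/LDH-coupled with 0.7 mM NADH, 1% DMSO final. Initial velocity from the 200–900 s slope of A340 decline. % activation = (Va/Vo−1)×100, measured across compound concentrations.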
# [1] = 10 uM compound, % Activation=(Va/Vo−1)×100
# [2] = compound at 10 uM, 1 mM ATP, room temperature
smiles,measurement,setting,value
"CCc1cc2c(Oc3ccc(S(C)(=O)=O)cc3)cc(C(=O)Nc3ccc(C)cn3)cc2o1 [Example 274, 2-Ethyl-N-(5-methylpyridin-2-yl)-4-[4-(methylsulfonyl)-phenoxy]-1-benzofuran-6-carboxamide]",activation at 10 µM,[1],131%
same,EC50,GK activation,2400 nM
same,Emax,,121%
"CN(C)C(=O)c1cc2c(Oc3ccc(S(C)(=O)=O)cc3)cc(C(=O)Nc3ccn(C)n3)cc2o1 [Example 286, N2,N2-Dimethyl-N6-(1-methyl-1H-pyrazol-3-yl)-4-[4-(methylsulfonyl)phenoxy]-1-benzofuran-2,6-dicarboxamide]",activation at 10 µM,[1],178%
same,EC50,GK activation,2600 nM
same,Emax,,224%
"Cc1cc2c(Oc3ccc(S(=O)(=O)N4CCC4)cc3)cc(C(=O)Nc3cnc(N(C)C)cn3)cc2o1 [Example 299, 4-(4-(Azetidin-1-ylsulfonyl)phenoxy)-N-(5-(dimethylamino)-pyrazin-2-yl)-2-methylbenzofuran-6-carboxamide]",activation at 10 µM,[1],106%
same,EC50,GK activation,180 nM
same,Emax,,107%
"Cn1ccc(NC(=O)c2cc(Oc3cnc(C(=O)N4CCC4)cn3)c3c(c2)OC(C)(C)C3)n1 [Example 396, 4-[5-(Azetidine-1-carbonyl)-pyrazin-2-yloxy]-2,2-dimethyl-2,3-dihydro-benzofuran-6-carboxylic acid(1-methyl-1H-pyrazol-3-yl)-amide]",EC50,"1 mM ATP, room temperature",360 nM
same,activation at 10 µM,[2],204%
same,Emax,1 mM ATP,212%
"CC(C)CN1Cc2c(Oc3ccc(S(C)(=O)=O)cc3)cc(C(=O)Nc3ccn(C)n3)cc2C1=O [Example 382, 2-Isobutyl-N-(1-methyl-1H-pyrazol-3-yl)-7-(4-(methylsulfonyl)-phenoxy)-3-oxoisoindoline-5-carboxamide]",EC50,"1 mM ATP, room temperature",9300 nM
same,activation at 10 µM,[2],82%
same,Emax,1 mM ATP,156%
"Cc1cc2c(Oc3ccc(S(C)(=O)=O)cc3)cc(C(=O)Nc3cccc(C(C)O)n3)cc2o1 (stereo not drawn) [Example 269, N-(6-(1-Hydroxyethyl)pyridin-2-yl)-2-methyl-4-(4-(methylsulfonyl)phenoxy)-benzofuran-6-carboxamide]",activation at 10 µM,[1],34.8%
same,EC50,GK activation,7000 nM
same,Emax,,59%
"Cn1ccc(NC(=O)c2cc(Oc3ccc(C(=O)NCCF)c(F)c3)c3c(c2)OC(C)(C)C3)n1 [Example 75, 4-[3-Fluoro-4-(2-fluoro-ethylcarbamoyl)-phenoxy]-2,2-dimethyl-2,3-dihydro-benzofuran-6-carboxylic acid(1-methyl-1H-pyrazol-3-yl)-amide]",activation at 10 µM,[1],193%
same,EC50,GK activation,260 nM
same,Emax,,189%
"Cn1ncc(NC(=O)c2cc(OC3CN(S(C)(=O)=O)C3)c3c(c2)OC(C)(C)C3)n1 [Example 194, 4-(1-Methanesulfonyl-azetidin-3-yloxy)-2,2-dimethyl-2,3-dihydro-benzofuran-6-carboxylic acid (2-methyl-2H-[1,2,3]triazol-4-yl)-amide]",activation at 10 µM,[1],146%
same,EC50,GK activation,5000 nM
same,Emax,,263%
"COc1cnc(NC(=O)c2cc(Oc3ccc(C(=O)N(C)C)nc3)c3cc(C)oc3c2)cn1 [Example 279, 5-(6-((5-Methoxypyrazin-2-yl)carbamoyl)-2-methylbenzofuran-4-yloxy)-N,N-dimethylpicolinamide]",activation at 10 µM,[1],84.3%
same,EC50,GK activation,430 nM
same,Emax,,105%
"CN(C)S(=O)(=O)c1ccc(Oc2cc(C(=O)Nc3ccn(C)n3)cc3c2CC(C)(C)O3)cc1F [Example 130, 4-(4-Dimethylsulfamoyl-3-fluoro-phenoxy)-2,2-dimethyl-2,3-dihydro-benzofuran-6-carboxylic acid (1-methyl-1H-pyrazol-3-yl)-amide]",activation at 10 µM,[1],211%
same,EC50,GK activation,140 nM
same,Emax,,236%
"COCCNC(=O)c1ccc(Oc2cc(C(=O)Nc3ccn(C)n3)cc3c2CC(C)(C)O3)cc1F [Example 68, 4-[3-Fluoro-4-(2-methoxy-ethylcarbamoyl)-phenoxy]-2,2-dimethyl-2,3-dihydro-benzofuran-6-carboxylic acid(1-methyl-1H-pyrazol-3-yl)-amide]",activation at 10 µM,[1],146%
same,EC50,GK activation,660 nM
same,Emax,,175%
"Cc1ccc(NC(=O)c2cc(Oc3ccc(S(=O)(=O)N4CCC4)cc3)c3cc(C)oc3c2)nc1 [Example 297, 4-(4-(Azetidin-1-ylsulfonyl)phenoxy)-2-methyl-N-(5-methylpyridin-2-yl)-benzofuran-6-carboxamide]",activation at 10 µM,[1],61.9%
same,EC50,GK activation,130 nM
same,Emax,,68%
"Cn1ncc(NC(=O)c2cc(Oc3ccc(C(=O)N4CCC4)cc3)c3c(c2)OC(C)(C)C3)n1 [Example 160, 4-[4-(Azetidine-1-carbonyl)-phenoxy]-2,2-dimethyl-2,3-dihydro-benzofuran-6-carboxylic acid (2-methyl-2H-[1,2,3]triazol-4-yl)-amide]",activation at 10 µM,[1],298%
same,EC50,GK activation,130 nM
same,Emax,,250%
"Cn1ccc(NC(=O)c2cc(Oc3ccc(S(C)(=O)=O)cc3)c3occc3c2)n1 [Example 332, N-(1-Methyl-1H-pyrazol-3-yl)-7-[4-(methylsulfonyl)phenoxy]-1-benzofuran-5-carboxamide]",activation at 10 µM,[1],57.5%
same,EC50,GK activation,> 10000 nM
"COCc1cc2c(Oc3ccc(S(C)(=O)=O)cc3)cc(C(=O)Nc3cnn(C)n3)cc2o1 [Example 313, 2-(Methoxymethyl)-4-[4-(methylsulfonyl)phenoxy]-N-(2-methyl-2H-1,2,3-triazol-4-yl)-1-benzofuran-6-carboxamide]",activation at 10 µM,[1],131%
same,EC50,GK activation,920 nM
same,Emax,,155%
"Cc1ccc(NC(=O)c2cc(Oc3ccc(C(F)F)cc3)c3cc(C(=O)N(C)C)oc3c2)nc1 [Example 323, 4-[4-(Difluoromethyl)phenoxy]-N^2,N^2-dimethyl-N^6-(5-methylpyridin-2-yl)-1-benzofuran-2,6-dicarboxamide]",activation at 10 µM,[1],78%
same,EC50,GK activation,3700 nM
same,Emax,,83%
"COCc1cc2c(Oc3ccc(S(C)(=O)=O)cc3)cc(C(=O)Nc3cc(C)on3)cc2o1 [Example 315, 2-(Methoxymethyl)-N-(5-methylisoxazol-3-yl)-4-[4-(methylsulfonyl)phenoxy]-1-benzofuran-6-carboxamide]",activation at 10 µM,[1],11.9%
"Cc1cc2c(Oc3ccc(S(C)(=O)=O)cn3)cc(C(=O)Nc3cnc(N(C)C)cn3)cc2o1 [Example 280, N[5-(Dimethylamino)pyrazin-2-yl]-2-methyl-4-{[5-(methylsulfonyl)pyridin-2-yl]oxy}-1-benzofuran-6-carboxamide]",activation at 10 µM,[1],130%
same,EC50,GK activation,2400 nM
same,Emax,,148%
"CCc1ccc(NC(=O)c2cc(Oc3ccc(S(C)(=O)=O)cc3)c3cc(C)oc3c2)nc1 [Example 265, N-(5-Ethylpyridin-2-yl)-2-methyl-4-(4-(methylsulfonyl)-phenoxy)benzofuran-6-carboxamide]",activation at 10 µM,[1],94.2%
same,EC50,GK activation,1700 nM
same,Emax,,74%
"Cn1ccc(NC(=O)c2cc(Oc3ccc(C(=O)N4CCC4)nc3)c3c(c2)OC(C)(C)C3)n1 [Example 167, 4-[6-(Azetidine-1-carbonyl)-pyridin-3-yloxy]-2,2-dimethyl-2,3-dihydro-benzofuran-6-carboxylic acid (1-methyl-1H-pyrazol-3-yl)-amide]",activation at 10 µM,[1],148%
same,EC50,GK activation,55.3 nM
same,Emax,,146%
